These compounds were tested against T1, guinea pig liver transglutaminase (UniProt P08587) (assay: transglutaminase-competition assay (incorporation of [3H]putrescine into dimethylated casein)). Conditions: 0.1 μM [3H]putrescine; 30 mM tris(hydroxymethyl)aminomethane HCl pH 8.0; FIG. 2.
T1 construct: guinea pig liver transglutaminase; from tissue; host or cells: guinea pig liver
T1 sequence (P08587 2-690 limits assumed): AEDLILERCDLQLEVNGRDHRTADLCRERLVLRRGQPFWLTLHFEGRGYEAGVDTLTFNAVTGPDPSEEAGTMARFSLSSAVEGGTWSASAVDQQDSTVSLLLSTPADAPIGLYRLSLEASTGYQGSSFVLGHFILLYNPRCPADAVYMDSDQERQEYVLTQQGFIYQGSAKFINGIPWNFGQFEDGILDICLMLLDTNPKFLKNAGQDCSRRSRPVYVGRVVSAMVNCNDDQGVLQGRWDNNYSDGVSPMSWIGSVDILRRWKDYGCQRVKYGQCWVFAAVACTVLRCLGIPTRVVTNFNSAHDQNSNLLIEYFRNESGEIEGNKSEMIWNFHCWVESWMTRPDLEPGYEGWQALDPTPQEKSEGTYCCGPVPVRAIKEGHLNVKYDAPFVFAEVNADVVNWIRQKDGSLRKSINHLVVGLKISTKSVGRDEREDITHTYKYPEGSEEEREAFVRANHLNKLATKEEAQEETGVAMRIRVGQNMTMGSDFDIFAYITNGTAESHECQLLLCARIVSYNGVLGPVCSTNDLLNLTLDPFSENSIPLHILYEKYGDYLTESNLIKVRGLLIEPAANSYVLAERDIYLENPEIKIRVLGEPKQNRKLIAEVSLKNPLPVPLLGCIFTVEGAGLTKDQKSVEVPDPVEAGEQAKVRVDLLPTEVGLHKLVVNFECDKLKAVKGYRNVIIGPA
Assay type: biochemical
Description: The transglutaminase competition assay was conducted in the presence of 30 mM tris(hydroxymethyl)aminomethane HCl, pH 8.3 (closed circles); 30 mM glycine, pH 9.25, (open circles); 30 mM glycine, pH 9.75 (open triangles); or 30 mM glycine, pH 10.0 (open squares). The data were obtained in the presence of increasing amounts of unlabeled putrescine.
The ability of transglutaminase to incorporate polyamines into a covalent conjugate with protein is the basis for an assay procedure based on competition between radiolabeled polyamine and unlabeled polyamine-containing standards or samples as the enzyme's substrates. However, because the affinity of transglutaminase for amine-containing substrates is relatively low the assay reaction could not be conducted under saturating substrate conditions and yield the level of sensitivity required to measure the polyamine content of biological samples. Therefore, assay conditions were developed which would make the protein acceptor substrate ratelimiting and allow the reaction to be run to completion, the radioactive and unlabeled polyamine competing for the completion, the radioactive and unlabeled polyamine competing for the limited number of conjugation sites. […] In all cases, the maximum incorporation was achieved by 30-60 minutes and was stable to another hour.
The reaction was initiated by the addition of transglutaminase solution (10 μl), incubated 60 minutes at 37° C. […] Triplicate aliquots (35 μl) of the solution were spotted on 1.5×8 cm instant thin-layer chromatography strips at a site 1.5 cm above the bottom edge which had previously received 60 μl of 20% trichloroacetic acid. Ascending chromatography was immediately carried out in 5% trichloroacetic acid containing 0.2 M KCl. After the solvent front had reached the top of the strip (ca. 10 minutes), a 2.5-cm segment from 1.5 cm above the 1 cm below the origin was cut out, dried, and the segment counted in 6 ml of scintillation liquid (toluene/Omnifluor, New England Nuclear, Boston).

50% displacement of [3H]putrescine incorporation [pmol] | SMILES
800 | NCCCCN [putrescine, Putrescine]
800 | NCCCCNCCCN [spermidine, Spermidine]
800 | NCCCNCCCCNCCCN [spermine]

— patent US4582794A, “Method of determining polyamine content of biological fluids” (The University of Arizona Foundation, priority 1982, dated 1986)
